Laboratory results taken from the supplement of paper PMC10307832.

Columns and labels:
Assay in all cases: relative viability (nuclei count vs DMSO), 5 days (fraction); higher = more cells survive
[1] = compound: COc1cccc2c1C(=O)c1c(O)c3c(c(O)c1C2=O)C[C@@](O)(C(=O)CO)C[C@@H]3O[C@H]1C[C@H](N)[C@H](O)[C@H](C)O1 [Doxorubicin] + COc1cccc2cc(-c3nc([C@H]4CC[C@H](C(=O)O)CC4)n4ncnc(N)c34)[nH]c12 [OSI-027] (partner 0.5 µM)
How it was run: (§1)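 Relative viability equals treated-well nuclei counts divided by vehicle-well nuclei counts. Counts came from 4× images of lung cancer cell lines grown in 1536-well plates for 5 days after pin-tool dosing on the day after seeding. Dosing used one drug alone or a fixed anchor-drug dose plus five library-drug doses (not always all listed) in √10 steps, and values are medians of duplicate plates.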

[2] = compound: COC1=C(C=C(C=C1)C2=CC3=NC=CN3C(=N2)NC4=C(C=CC=N4)C(=O)N)OC [BAY61-3606] + CCNC(=O)c1noc(-c2cc(C(C)C)c(O)cc2O)c1-c1ccc(CN2CCOCC2)cc1 [Luminespib] (partner 0.01 µM)
How it was run: as §1

[3] = compound: COC1=C(C=C(C=C1)C2=CC3=NC=CN3C(=N2)NC4=C(C=CC=N4)C(=O)N)OC [BAY61-3606] + CS(=O)(=O)N1CCN(Cc2cc3nc(-c4cccc5[nH]ncc45)nc(N4CCOCC4)c3s2)CC1 [Pictilisib] (partner 1 µM)
How it was run: as §1

[4] = compound: COc1cccc2c1C(=O)c1c(O)c3c(c(O)c1C2=O)C[C@@](O)(C(=O)CO)C[C@@H]3O[C@H]1C[C@H](N)[C@H](O)[C@H](C)O1 [Doxorubicin] + NC(=O)Nc1cc(-c2cccc(F)c2)sc1C(=O)N[C@H]1CCCNC1 [AZD7762] (partner 0.2 µM)
How it was run: as §1

| Cell Line | relative viability ([1]; first compound 0.001 µM) | relative viability ([1]; first compound 0.003162 µM) | relative viability ([1]; first compound 0.01 µM) | relative viability ([1]; first compound 0.03162 µM) | relative viability ([1]; first compound 0.1 µM) | relative viability ([2]; first compound 0.02 µM) | relative viability ([2]; first compound 0.06325 µM) | relative viability ([2]; first compound 0.2 µM) | relative viability ([2]; first compound 0.6325 µM) | relative viability ([2]; first compound 2 µM) | relative viability ([3]; first compound 0.02 µM) | relative viability ([3]; first compound 0.06325 µM) | relative viability ([3]; first compound 0.2 µM) | relative viability ([3]; first compound 0.6325 µM) | relative viability ([3]; first compound 2 µM) | relative viability ([4]; first compound 0.001 µM) | relative viability ([4]; first compound 0.003162 µM) | relative viability ([4]; first compound 0.01 µM) | relative viability ([4]; first compound 0.03162 µM) | relative viability ([4]; first compound 0.1 µM) |
| --- | --- | --- | --- | --- | --- | --- | --- | --- | --- | --- | --- | --- | --- | --- | --- | --- | --- | --- | --- | --- |
| NCI-H838 | 0.421 | 0.429 | 0.387 | 0.39 | 0.328 | 0.368 | 0.24 | 0.347 | 0.259 | 0.28 | 0.568 | 0.432 | 0.601 | 0.523 | 0.324 | 0.921 | 0.934 | 0.913 | 0.919 | 0.749 |
| NCI-H1355 | 0.374 | 0.422 | 0.396 | 0.432 | 0.389 | 0.736 | 0.657 | 0.694 | 0.727 | 0.413 | 0.508 | 0.378 | 0.389 | 0.374 | 0.302 | 0.838 | 0.741 | 0.741 | 0.673 | 0.72 |
| NCI-H1395 | 0.633 | 0.714 | 0.685 | 0.603 | 0.559 | 0.849 | 0.595 | 0.733 | 0.568 | 0.546 | 0.777 | 0.524 | 0.584 | 0.641 | 0.559 | 0.414 | 0.435 | 0.421 | 0.347 | 0.377 |
| NCI-H1437 | 0.828 | 0.916 | 0.842 | 0.698 | 0.351 | 1.14 | 1.15 | 1 | 1.19 | 1.04 | 0.532 | 0.44 | 0.507 | 0.442 | 0.391 | 1.11 | 0.994 | 1.04 | 1.09 | 0.877 |
| NCI-H1651 | 0.682 | 0.679 | 0.554 | 0.298 | 0.22 | 1.03 | 0.869 | 0.664 | 1.13 | 0.603 | 0.628 | 0.689 | 0.623 | 0.531 | 0.401 | 0.466 | 0.536 | 0.399 | 0.509 | 0.397 |
| NCI-H1666 | 0.778 | 0.736 | 0.547 | 0.45 | 0.486 | 1.12 | 0.998 | 1.13 | 1.08 | 1.05 | 0.521 |  | 0.447 | 0.375 | 0.395 | 0.909 | 0.762 | 0.882 | 0.795 | 0.596 |
| NCI-H1734 | 0.799 | 0.6 | 0.594 | 0.395 | 0.432 | 0.26 | 0.179 | 0.188 | 0.278 | 0.167 | 0.46 | 0.459 | 0.485 | 0.406 | 0.324 | 0.515 | 0.58 | 0.539 | 0.318 | 0.283 |
| NCI-H1755 | 0.631 | 0.711 | 0.747 | 0.721 | 0.704 | 0.367 | 0.495 | 0.397 | 0.433 | 0.384 | 0.532 | 0.35 | 0.463 | 0.415 | 0.385 | 0.523 | 0.489 | 0.393 | 0.485 | 0.491 |
| NCI-H1792 |  | 0.674 | 0.713 | 0.709 | 0.625 | 0.462 | 0.404 | 0.439 | 0.581 | 0.274 | 0.293 | 0.176 | 0.328 | 0.363 | 0.303 | 0.653 | 0.824 | 0.721 | 0.522 | 0.45 |
| NCI-H1793 |  | 0.334 | 0.253 | 0.265 | 0.292 | 0.177 | 0.159 |  | 0.163 | 0.182 | 0.434 | 0.381 | 0.303 | 0.352 | 0.434 |  | 0.432 | 0.574 | 0.298 | 0.358 |
| NCI-H1915 | 0.532 | 0.674 | 0.667 | 0.628 | 0.659 | 0.777 | 0.86 | 0.686 | 0.731 | 0.369 | 0.999 | 0.99 | 0.739 | 0.884 | 0.685 | 0.694 | 0.761 | 0.644 | 0.688 | 0.714 |
| NCI-H1944 | 0.317 | 0.46 | 0.473 | 0.358 | 0.366 | 0.802 | 0.674 | 0.734 | 0.688 | 0.282 | 0.384 | 0.346 | 0.337 | 0.326 | 0.281 | 0.512 | 0.573 | 0.451 | 0.483 | 0.46 |
| NCI-H1975 | 0.637 | 0.715 | 0.685 | 0.497 | 0.256 | 0.18 | 0.199 | 0.268 | 0.247 | 0.119 | 0.354 | 0.238 | 0.253 | 0.262 | 0.19 | 0.738 | 0.623 | 0.764 | 0.599 | 0.391 |
| NCI-H1993 | 0.591 | 0.58 | 0.542 | 0.515 | 0.498 | 0.947 | 0.736 | 0.873 | 0.901 | 0.527 | 0.871 | 0.764 | 0.755 | 0.868 | 0.804 | 0.856 | 0.882 | 0.708 | 0.73 | 0.579 |
| NCI-H2085 | 0.786 | 0.784 | 0.667 | 0.679 | 0.589 | 0.416 | 0.469 | 0.486 | 0.443 | 0.412 | 0.376 | 0.487 | 0.499 | 0.459 | 0.601 | 0.972 | 0.974 | 0.856 | 1.1 | 0.896 |
| NCI-H2087 |  | 0.702 | 0.414 | 0.403 | 0.269 | 0.188 | 0.132 | 0.181 | 0.196 | 0.139 | 1.05 | 0.937 | 0.865 | 0.878 | 0.666 | 1.3 | 1.32 | 1.32 | 1.34 | 1.17 |
